# PMC6086891, “Adenosine Kinase couples sensing of cellular potassium depletion to purine metabolism” (Scientific Reports, 2018)
# Tests used:
# Assay type in all cases: binding
# Adenosine Kinase (mADK) [1] = biological target: T1, Adenosine Kinase (mADK) (Mus musculus, UniProt P55264); test: X-ray crystal structure, […] Å binary complex (also the […] Å ternary complex 5KB5); kinetics show competitive inhibition against ATP; design: gene Adk; Δ19mADK, Leu20 – Phe360 (binary complex); full-length mADK (ternary complex)
# Target sequence in this assay (P55264 20-360): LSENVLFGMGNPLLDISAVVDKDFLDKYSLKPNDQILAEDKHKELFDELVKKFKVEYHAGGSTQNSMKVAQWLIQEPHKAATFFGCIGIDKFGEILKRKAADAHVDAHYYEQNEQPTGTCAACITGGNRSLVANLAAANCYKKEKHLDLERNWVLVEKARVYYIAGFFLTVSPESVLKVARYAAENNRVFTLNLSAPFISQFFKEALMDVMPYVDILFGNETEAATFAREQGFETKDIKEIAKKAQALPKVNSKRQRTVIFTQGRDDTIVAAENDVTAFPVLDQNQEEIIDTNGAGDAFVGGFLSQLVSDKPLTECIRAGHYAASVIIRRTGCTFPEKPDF
# Adenosine Kinase (mADK) [2] = biological target: T1, Adenosine Kinase (mADK); test: X-ray crystal structure, […] Å ternary complex mADK:ADO:ADP; design: gene Adk; full-length mADK (Met1 to His362); model residues 20 to 360
# Target sequence in this assay (P55264 whole entry, the tested form may be a part): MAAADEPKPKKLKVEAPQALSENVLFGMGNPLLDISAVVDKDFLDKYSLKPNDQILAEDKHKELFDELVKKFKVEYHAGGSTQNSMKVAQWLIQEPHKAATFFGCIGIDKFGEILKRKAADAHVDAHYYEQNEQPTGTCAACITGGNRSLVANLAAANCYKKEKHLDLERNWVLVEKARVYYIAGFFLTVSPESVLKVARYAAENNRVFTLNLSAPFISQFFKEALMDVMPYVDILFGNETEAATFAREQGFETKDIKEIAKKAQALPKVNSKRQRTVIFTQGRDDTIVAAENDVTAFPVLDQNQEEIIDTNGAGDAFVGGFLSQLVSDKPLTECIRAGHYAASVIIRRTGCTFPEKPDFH
# Adenosine Kinase (mADK) [3] = biological target: T2, Adenosine Kinase (mADK) (Mus musculus, UniProt P55264, D310P); test: 2D […]-1H HSQC titration and 1D 1H STD NMR (weaker than wild type)
# T2 construct: gene Adk
# Adenosine Kinase (mADK) [4] = biological target: T1, Adenosine Kinase (mADK); test: 2D […]-1H HSQC titration and 1D 1H STD NMR; design: gene Adk
# Target sequence in this assay (P55264 whole entry, the tested form may be a part): as above
# T2 sequence (P55264 whole entry D310P): as the sequence (P55264 whole entry, the tested form may be a part) above, with D310P counted along it
smiles,measurement,setting,value
"Nc1ncnc2c1ncn2[C@@H]1O[C@H](CO)[C@@H](O)[C@H]1O [ADO, adenosine]","X-ray crystal structure, 1.2 Å binary complex (also the 1.8 Å ternary complex 5K)",Adenosine Kinase (mADK) [1],"In the mADK:ADO complex, electronic density for ADO was identified in the BS1 site"
"Nc1ncnc2c1ncn2[C@@H]1O[C@H](COP(=O)(O)OP(=O)(O)O)[C@@H](O)[C@H]1O [ADP, adenosine-5′-diphosphate]","X-ray crystal structure, 1.8 Å ternary complex mADK:ADO:ADP",Adenosine Kinase (mADK) [2],"In this complex, ADP occupies BS1."
"Nc1ncnc2c1ncn2[C@@H]1O[C@H](CO[P@](=O)(O)O[P@](=O)(O)O[P@@](=O)(O)S)[C@@H](O)[C@H]1O [ATPγS, adenosine triphosphate-gamma-S]",2D 15N-1H HSQC titration and 1D 1H STD NMR (weaker than wild type),Adenosine Kinase (mADK) [3],1D ^1H STD NMR indicate that the D310P mutant has an unfavorable interaction with ATPγS relative to the wild-type mADK
same,2D 15N-1H HSQC titration and 1D 1H STD NMR,Adenosine Kinase (mADK) [4],"ATPγS caused significant chemical shift changes in the wild-type mADK, especially in the residues around the BS1 site"
